This is an account of results in US7576215B2, “Quinolines and pharmaceutical compositions thereof” (Wyeth, priority 2003, dated 2009).

As usually defined, the melting point is the temperature, or range, at which the solid turns liquid. `COC(=O)/C=C/c1ccc(COc2cccc(-c3c(-c4ccccc4)cnc4c(C(F)(F)F)cccc34)c2)cc1` showed a melting point of 91 °C. The figure for `COC(=O)/C=C/c1ccc(COc2cc(-c3c(-c4ccccc4)cnc4c(C(F)(F)F)cccc34)ccc2Cl)cc1` is 149 to 151 °C; for `O=C(O)/C=C/c1ccc(COc2cc(-c3c(-c4ccccc4)cnc4c(C(F)(F)F)cccc34)ccc2Cl)cc1` it is 257 °C; for `O=S(=O)(c1ccccc1)c1cnc2c(C(F)(F)F)cccc2c1-c1ccccc1` it is 149 to 151 °C.

On to `Cc1ccccc1-c1cnc2c(C(F)(F)F)cccc2c1-c1cccc(NC(=O)Nc2ccccc2)c1`, for which the melting point was 192 to 195 °C. `Cc1ccccc1-c1cnc2c(C(F)(F)F)cccc2c1-c1cccc(NC(=O)Nc2ccccc2Cl)c1` returned a melting point of 224 to 226 °C. Compound `OCCc1ccc(COc2cccc(-c3c(-c4ccccc4)cnc4c(C(F)(F)F)cccc34)c2)cc1` showed a melting point of 50 °C. As for `Cc1ccccc1-c1cnc2c(C(F)(F)F)cccc2c1-c1cccc(N)c1`, the melting point was 148 to 151 °C. The compound `O=C(Nc1ccccc1)c1cnc2c(C(F)(F)F)cccc2c1-c1ccccc1` [Example 72, N, 4-DIPHENYL-8-(TRIFLUOROMETHYL)QUINOLINE-3-CARBOXAMIDE] showed a melting point of 207 to 208 °C. Regarding `O=C(Nc1ccccc1)Nc1cccc(-c2c(-c3ccccc3)cnc3c(C(F)(F)F)cccc23)c1` [Example 75, N-PHENYL-N′-{3-[3-PHENYL-8-(TRIFLUOROMETHYL)QUINOLIN-4-YL]PHENYL}UREA], the melting point lay within 202 to 205 °C. Turning to `O=C(Nc1cccc(-c2c(-c3ccccc3)cnc3c(C(F)(F)F)cccc23)c1)Nc1ccccc1Cl` [Example 76, N-(2-CHLOROPHENYL)-N′-{3-[3-PHENYL-8-(TRIFLUOROMETHYL)QUINOLIN-4-YL]PHENYL}UREA], the melting point lay within 192 to 195 °C.

In turn, `Cc1ccc(NC(=O)c2cnc3c(C(F)(F)F)cccc3c2-c2ccccc2)cc1` [Example 368, N-(4-METHYLPHENYL)-4-PHENYL-8-(TRIFLUOROMETHYL)QUINOLINE-3-CARBOXAMIDE] had a melting point of 203 to 205 °C.

`Cc1cccc(NC(=O)c2cnc3c(C(F)(F)F)cccc3c2-c2ccccc2)c1` [Example 370, N-(3-METHYLPHENYL)-4-PHENYL-8-(TRIFLUOROMETHYL)QUINOLINE-3-CARBOXAMIDE] displayed a melting point of 182 to 184 °C. Compound `O=C(Nc1cccc(C(F)(F)F)c1)c1cnc2c(C(F)(F)F)cccc2c1-c1ccccc1` [Example 371, 4-PHENYL-8-(TRIFLUOROMETHYL)-N-[3-(TRIFLUOROMETHYL)PHENYL]QUINOLINE-3-CARBOXAMIDE] registered a melting point of 155 to 157 °C. `O=C(Nc1ccc(Cl)cc1)c1cnc2c(C(F)(F)F)cccc2c1-c1ccccc1` [Example 372, N-(4-CHLOROPHENYL)-4-PHENYL-8-(TRIFLUOROMETHYL)QUINOLINE-3-CARBOXAMIDE]: the melting point fell in the range of 153 to 155 °C. `O=C(Nc1cccc(Cl)c1)c1cnc2c(C(F)(F)F)cccc2c1-c1ccccc1` [Example 373, N-(3-CHLOROPHENYL)-4-PHENYL-8-(TRIFLUOROMETHYL)QUINOLINE-3-CARBOXAMIDE] showed a melting point of 159 to 161 °C.

The compound `O=C(Nc1ccccc1Cl)c1cnc2c(C(F)(F)F)cccc2c1-c1ccccc1` [Example 374, N-(2-CHLOROPHENYL)-4-PHENYL-8-(TRIFLUOROMETHYL)QUINOLINE-3-CARBOXAMIDE] registered a melting point of 173 to 175 °C.

`O=C(Nc1ccc(F)cc1)c1cnc2c(C(F)(F)F)cccc2c1-c1ccccc1` [Example 376, N-(4-FLUOROPHENYL)-4-PHENYL-8-(TRIFLUOROMETHYL)QUINOLINE-3-CARBOXAMIDE] gave a melting point of 157 to 159 °C.

`O=C(Nc1cccc(F)c1)c1cnc2c(C(F)(F)F)cccc2c1-c1ccccc1` [Example 377, N-(3-FLUOROPHENYL)-4-PHENYL-8-(TRIFLUOROMETHYL)QUINOLINE-3-CARBOXAMIDE] yielded a melting point of 171 to 173 °C.

`CN(C(=O)c1cnc2c(C(F)(F)F)cccc2c1-c1ccccc1)c1ccccc1` [Example 378, N-METHYL-N,4-DIPHENYL-8-(TRIFLUOROMETHYL)QUINOLINE-3-CARBOXAMIDE] yielded a melting point of 188 to 190 °C.

For the compound `Cc1cccc(N(C)C(=O)c2cnc3c(C(F)(F)F)cccc3c2-c2ccccc2)c1` [Example 379, N-METHYL-N-(3-METHYLPHENYL)-4-PHENYL-8-(TRIFLUOROMETHYL)QUINOLINE-3-CARBOXAMIDE], the melting point is 174 to 176 °C. `Cc1ccc(N(C)C(=O)c2cnc3c(C(F)(F)F)cccc3c2-c2ccccc2)cc1` [Example 380, N-METHYL-N-(4-METHYLPHENYL)-4-PHENYL-8-(TRIFLUOROMETHYL)QUINOLINE-3-CARBOXAMIDE]: the melting point was in the range of 143 to 145 °C. On to `Cc1ccccc1N(C)C(=O)c1cnc2c(C(F)(F)F)cccc2c1-c1ccccc1` [Example 381, N-METHYL-N-(2-METHYLPHENYL)-4-PHENYL-8-(TRIFLUOROMETHYL)QUINOLINE-3-CARBOXAMIDE], for which the melting point worked out at 144 °C. Compound `CN(C(=O)c1cnc2c(C(F)(F)F)cccc2c1-c1ccccc1)c1cccc(C(F)(F)F)c1` [Example 382, N-METHYL-4-PHENYL-8-(TRIFLUOROMETHYL)-N-[3-(TRIFLUOROMETHYL)PHENYL]QUINOLINE-3-CARBOXAMIDE] registered a melting point of 163 to 165 °C. For `CN(C(=O)c1cnc2c(C(F)(F)F)cccc2c1-c1ccccc1)c1ccc(Cl)cc1` [Example 383, N-(4-CHLOROPHENYL)-N-METHYL-4-PHENYL-8-(TRIFLUOROMETHYL)QUINOLINE-3-CARBOXAMIDE] the value was 177 to 179 °C. `CN(C(=O)c1cnc2c(C(F)(F)F)cccc2c1-c1ccccc1)c1cccc(Cl)c1` [Example 384, N-(3-CHLOROPHENYL)-N-METHYL-4-PHENYL-8-(TRIFLUOROMETHYL)QUINOLINE-3-CARBOXAMIDE] yielded a melting point of 211 to 213 °C. On to `CCc1ccc(N(C)C(=O)c2cnc3c(C(F)(F)F)cccc3c2-c2ccccc2)cc1` [Example 385, N-(4-ETHYLPHENYL)-N-METHYL-4-PHENYL-8-(TRIFLUOROMETHYL)QUINOLINE-3-CARBOXAMIDE], for which the melting point was in the range of 136 to 138 °C. For `CCc1cccc(N(C)C(=O)c2cnc3c(C(F)(F)F)cccc3c2-c2ccccc2)c1` [Example 386, N-(3-ETHYLPHENYL)-N-METHYL-4-PHENYL-8-(TRIFLUOROMETHYL)QUINOLINE-3-CARBOXAMIDE] the value was 144 to 146 °C.

Take `COc1ccccc1N(C)C(=O)c1cnc2c(C(F)(F)F)cccc2c1-c1ccccc1` [Example 387, N-(2-METHOXYPHENYL)-N-METHYL-4-PHENYL-8-(TRIFLUOROMETHYL)QUINOLINE-3-CARBOXAMIDE]: the melting point was found to be 138 °C. For the compound `CN(C(=O)c1cnc2c(C(F)(F)F)cccc2c1-c1ccccc1)c1ccc(F)cc1` [Example 388, N-(4-FLUOROPHENYL)-N-METHYL-4-PHENYL-8-(TRIFLUOROMETHYL)QUINOLINE-3-CARBOXAMIDE], the melting point was in the range of 138 to 140 °C. For `CN(C(=O)c1cnc2c(C(F)(F)F)cccc2c1-c1ccccc1)c1cccc(F)c1` [Example 389, N-(3-FLUOROPHENYL)-N-METHYL-4-PHENYL-8-(TRIFLUOROMETHYL)QUINOLINE-3-CARBOXAMIDE], the melting point was 200 to 202 °C.
